Source: PMC8048383 (Cancer cell, 2021)

Tests used:
[1] = test system: TOP1 DNA-protein crosslinks (TOP1-DPCs) in DMS114 cells; test: in vivo complex of enzyme; format: cell-based, human
[2] = test system: DMS114 and H209 SCLC cell models; test: replication; format: cell-based, human
[3] = plasma pharmacokinetics in trial patients; format: in vivo, human; conditions: cycle 1, suggesting absence of drug-drug interactions
SCLC cells = test: MIPE 5.0 library combination screen with indotecan, pairs ranked by ExcessHSA; format: cell-based, human; conditions: in combination with indotecan (LMP400)
DMS114 cells = test: flow cytometry EdU incorporation and cell cycle analysis; format: cell-based, human; conditions: M6620 with topotecan; forced progression to G2/M phase
[4] = test system: replication protein A (RPA) S33 phosphorylation; test: Western blot of RPA phosphorylation; format: cell-based, human
pCHK1 (Ser345) = test: pharmacodynamics of pCHK1; format: in vivo, mice; conditions: M6620 10, 20 and 30 mg/kg i.v. with 50 mg/kg irinotecan i.p.; 1-24 h
[5] = test system: platinum-resistant SCLC patients; conditions: second-line lurbinectedin; ref Trigo et al., 2020; cited from earlier work
[6] = test system: patients with platinum-resistant SCLC; conditions: topotecan monotherapy, ref Horita et al., 2015; cited from earlier work

## O=c1cc(-c2cccc3c2Sc2ccccc2S3)oc(N2CCOCC2)c1 [KU55933]
[1]; 1 μM pretreatment 4 h before topotecan 1 μM 2 h
  potentiation of topotecan-generated TOP1-DPCs: neither an ATM inhibitor (KU55933) nor a DNA-PKcs inhibitor (VS984) potentiated topotecan-generated TOP1-DPCs

## CNCc1ccc(-c2cc(-c3nc(-c4ccc(S(=O)(=O)C(C)C)cc4)cnc3N)on2)cc1 [M6620, berzosertib]
[2]; M6620 added to topotecan
  topotecan-induced replication block: abrogated the replication block
[3]
  plasma pharmacokinetics in combination: appeared consistent with the individual agents
[1]; M6620 pre-treatment (1 μM, 4 h), after 2-hour treatment with topotecan (1 μM)
  increase in TOP1-DPCs: 1.4 fold
SCLC cells
  rank of TOP1 inhibitor-drug pair by ExcessHSA: 32
DMS114 cells
  S-phase arrest induced by TOP1 inhibition: abrogated the S-phase arrest induced by TOP1 inhibition
[4]; M6620 treatment
  topotecan-induced RPA32 phosphorylation: reduced the topotecan-induced RPA32 phosphorylation
pCHK1 (Ser345)
  irinotecan induced pCHK1 (Ser345): blocks irinotecan induced pCHK1 in a dose- and time-dependent manner

## CC(C)c1cc(-c2n[nH]c(=O)n2-c2ccc3c(ccn3C)c2)c(O)cc1O [ganetespib]
SCLC cells
  rank of TOP1 inhibitor-drug pair by ExcessHSA: 5

## COc1ccc2[nH]c3c(c2c1)CCN[C@]31CS[C@@H]2c3c(OC(C)=O)c(C)c4c(c3[C@H](COC1=O)N1[C@@H]2[C@H]2c3c(cc(C)c(OC)c3O)C[C@@H]([C@@H]1O)N2C)OCO4 [lurbinectedin]
[5]
  confirmed ORR: 22.2%
  median DOR: 4.7 months
  patients with confirmed responses with DOR>6 months: 11.7%

## COc1cccc(OCCCN)c1-c1cc(Nc2cnc(C#N)cn2)n[nH]1 [prexasertib]
SCLC cells
  rank of TOP1 inhibitor-drug pair by ExcessHSA: 9

## CC[C@@]1(O)C(=O)OCc2c1cc1n(c2=O)Cc2cc3c(CN(C)C)c(O)ccc3nc2-1 [topotecan]
[2]; within 30 minutes of topotecan treatment
  replication velocity: significantly reduced replication velocity
[3]
  plasma pharmacokinetics in combination: appeared consistent with the individual agents
[6]
  responses (proportion of patients): approximately 5%
[4]; DMS114 cells, following exposure to topotecan
  phosphorylation of RPA at S33: rapid phosphorylation of replication protein A (RPA) at S33
